According to patent US8063008B2, “Enzymatic production of peracids using perhydrolytic enzymes” (E. I. du Pont de Nemours and Company, priority 2005, dated 2011):
Where “and” joins values, the source holds several entries; their conditions need not be identical. Equal values may be shown once. Read-outs that look alike come from different tables or passages of the source.

Assays:
[1] = target: protease subtilisin from Bacillus amyloliquefaciens (Bacillus amyloliquefaciens, UniProt P00782); conditions: cited from earlier work
E. coli ATCC 11229 = assay: Determination of Minimum Biocidal Concentration (MBC), XTT reduction inhibition (Example 21); format: cell-based; conditions: for replicate OD (450 nm): replicates 1-8
From the text: The method described by J. Gabrielson, et al. (J. Microbiol. Methods 50: 63-73 (2002)) was employed for determination of the Minimum Biocidal Concentration (MBC) of peracids, or for determination of the MBC of hydrogen peroxide and enzyme substrates. The assay method is based on XTT reduction inhibition, where XTT ((2,3-bis[2-methoxy-4-nitro-5-sulfophenyl]-5-[(phenylamino)carbonyl]-2H-tetrazolium, inner salt, monosodium salt) is a redox dye that indicates microbial respiratory activity by a change in optical density (OD) measured at 490 nm or 450 nm. However, there are a variety of other methods available for testing the activity of disinfectants and antiseptics including, but not limited to viable plate counts, direct microscopic counts, dry weight, turbidity measurements, absorbance, and bioluminescence (see, for example Brock, Semour S., Disinfection, Sterilization, and Preservation, 5th edition, Lippincott Williams & Wilkins, Philadelphia, Pa., USA; 2001).
The filtered enzyme-generated product mixture was diluted 1:5 with sterile water, and the resulting solution was further diluted with sterile water in four 1:1 serial dilutions to obtain the concentrations of PAA and hydrogen peroxide listed in Table 22.
The 1:5 dilution and four serial dilutions were evaluated for biocidal activity by mixing 0.100 mL of the PAA-containing solution with 0.100 mL of an inoculum containing 2.7×10^6 CFU/mL of E. coli ATCC 11229 (American Type Culture Collection, Manassas, Va.) in Millers LB broth diluted with Butterfield Buffer; eight replicates of each mixture were contained in individual wells of a sterile 96-well microtiter plate. After the resulting cell suspensions were allowed to stand for 10 minutes at room temperature, they were tested for viability using the growth indicator XTT (2,3-bis[2-methoxy-4-nitro-5-sulfophenyl]-5-[(phenylamino)carbonyl]-2H-tetrazolium, inner salt, monosodium salt; CAS RN 111072-31-2) according to the method of Gabrielson et al. (J. Microbiol. Methods, 50:63-73 (2002)).
Separately, the cell inoculum was treated with sterile solutions of triacetin (Table 24) or hydrogen peroxide in 50 mM phosphate buffer (pH 6.5) (Table 25) at the concentrations present in each of the biocide dilutions in Table 23 to determine the MBC for these components of the biocide solution.

[2] = Enzymatic perhydrolysis of a mixture of diacetin (250 mM), triacetin (88 mM) and monoacetin (192 mM) using lipase and Neutrase at pH 4.0 and 6.5 (Example 25); format: biochemical; conditions: monoacetin 192 mM, H2O2 500 mM, 22° C.
Method: Reaction mixtures were prepared containing 1 mg lipase (A “Amano” 12 (Amano), Validase AN (Valley Research), or ICR-110 (BioCatalytics)), and 20 μL Neutrase® (Novozymes) in 1.0 mL of 50 mM buffer (either sodium acetate/acetic acid buffer at pH 4.0, or potassium phosphate buffer at pH 6.5), additionally containing a mixture of diacetin (250 mM), triacetin (88 mM) and monoacetin (192 mM) and hydrogen peroxide (500 mM). After stirring for 5 or 30 minutes at 22° C., a 0.250-mL sample was filtered using a 30,000 NMWL filter (Millipore UltraFree-MC) centrifuged for 2 minutes at 12,000 RPM. A portion of the filtered reaction samples was diluted 1:10 with dd water and analyzed for hydrogen peroxide, and the remaining portion of the sample was directly analyzed for peracid using the HPLC assay method (Table 30). Reactions were also run with lipase alone or Neutrase® alone for comparison of peracetic acid concentrations produced without the combination of lipase and Neutrase®.

[3] = Enzymatic perhydrolysis of triacetin using a combination of lipase and Neutrase at pH 4.0 and 6.5 (Example 24); format: biochemical; conditions: triacetin 250 mM, H2O2 500 mM, 22° C.
Method: Reaction mixtures were prepared containing 1 mg lipase (A “Amano” 12 (Amano), Validase AN (Valley Research), or ICR-110 (BioCatalytics)), and 20 μL Neutrase® (Novozymes) in 1.0 mL of 50 mM buffer (either sodium acetate/acetic acid buffer at pH 4.0, or potassium phosphate buffer at pH 6.5), additionally containing triacetin (250 mM) and hydrogen peroxide (500 mM). […] A portion of the filtered reaction samples was diluted 1:10 with dd water and analyzed for hydrogen peroxide, and the remaining portion of the sample was directly analyzed for peracid using the HPLC assay method (Table 29). Reactions were also run with lipase alone or Neutrase® alone for comparison of peracetic acid concentrations produced without the combination of lipase and Neutrase®.

[4] = Protease-catalyzed perhydrolysis of acetamide at pH 4.0 (Example 6); format: biochemical; conditions: pH 4.0, 500 mM H2O2, 1 mg protease
Method: (§1) Into a 4-mL glass vial with stir bar was added 1 mg protease (Table 6) in 0.050 mL of 50 mM sodium acetate/acetic acid buffer (pH 4.0), 0.900 mL of an aqueous mixture containing either a) acetamide (278 mM) in 50 mM sodium acetate/acetic acid buffer (pH 4.0) or b) diacetamide (278 mM) in 50 mM sodium acetate/acetic acid buffer (pH 4.0), and 0.052 mL 30% hydrogen peroxide (500 mM final concentration). […] A portion of the filtered reaction samples was diluted 1:10 with dd water and analyzed for hydrogen peroxide, and the remaining portion of the sample was directly analyzed for peracid using the HPLC assay method (Table 7).

[5] = Protease-catalyzed perhydrolysis of triacetin at pH 6.5 (Example 8); format: biochemical; conditions: pH 6.5, 500 mM H2O2, 1 mg protease
Method: The analytical procedure described by U. Karst et al. (Anal. Chem., 69 (17):3623-3627 (1997)) was employed, as described herein, for analysis of product mixtures containing peracid and hydrogen peroxide. Briefly, the concentration of peracetic acid (PAA) in analyzed samples ranged from 0.025 mM-10 mM, and the concentration of H2O2 ranged from 0.075 mM-3 mM. Reaction mixtures containing peracid and/or hydrogen peroxide were, if necessary prior to analysis, diluted to produce a concentration of peracid or peroxide in these ranges. Into a 4-mL vial was placed 0.100 mL of 20 mM methyl p-tolyl sulfide (MTS) in acetonitrile, 0.300 mL of distilled and deionized water (dd) and 0.100 mL of sample solution (undiluted or diluted with dd water by a factor of up to 1:25 for analysis of peracid), or 0.100 mL of 20 mM MTS in acetonitrile and 0.390 mL of dd water were added to 0.010 mL of a 1:10 dilution of sample solution (for analysis of hydrogen peroxide). After a reaction time of 10 minutes (in the dark, with no stirring), 0.400 mL CH3CN and 0.100 mL of 40-mM triphenylphosphine (TPP) in CH3CN were added to start the second derivatization reaction for detection of peroxide. The solution was left standing in the dark for 30 min to complete the assay reaction. At the end of 30 minutes, 0.100 mL of 10 mM N,N-diethyl-m-toluamide (DEET, HPLC external standard) was added and the resulting solution analyzed by HPLC: Supelco Discovery C8 10-cm column with pre-column, 10-μL injection, UV detection at 225 nm, solvent A: acetonitrile, solvent B: deionized water, 1 mL/min gradient as follows: […]
Into a 4-mL glass vial with stir bar was added 1 mg protease (Table 6) in 0.050 mL of 50 mM sodium phosphate buffer (pH 6.5), 0.900 mL of an aqueous mixture containing triacetin (278 mM) in 50 mM phosphate buffer (pH 6.5), and 0.052 mL 30% hydrogen peroxide (500 mM final concentration). After stirring for 5 or 30 minutes at 22° C., a 0.250 mL sample was filtered using a 30,000 NMWL filter (Millipore UltraFree-MC) centrifuged for 2 minute at 12,000 RPM. A portion of the filtered reaction samples was diluted 1:10 with dd water and analyzed for hydrogen peroxide, and the remaining portion of the sample was directly analyzed for peracid using the HPLC assay method (Table 9).

[6] = Protease-catalyzed perhydrolysis of acetamide at pH 6.5 (Example 9); format: biochemical; conditions: pH 6.5, 500 mM H2O2, 1 mg protease
Method: as §1, with “potassium phosphate” for “sodium acetate/acetic acid”, “6.5),” for “4.0),”, “6.5)” for “4.0)”, “10).” for “7).”

[7] = Protease-catalyzed perhydrolysis of triacetin at pH 4.0 (Example 7); format: biochemical; conditions: pH 4.0, 500 mM H2O2, 1 mg protease
Method: as §1, with “triacetin” for “either a) acetamide (278 mM) in 50 mM sodium acetate/acetic acid buffer (pH 4.0) or b) diacetamide”, “8).” for “7).”

[8] = Protease-catalyzed perhydrolysis of diacetamide at pH 6.5 (Example 9); format: biochemical; conditions: pH 6.5, 500 mM H2O2, 1 mg protease
Method: as §1, with “potassium phosphate” for “sodium acetate/acetic acid”, “6.5),” for “4.0),”, “6.5)” for “4.0)”, “10).” for “7).”

[9] = Protease-catalyzed perhydrolysis of diacetamide at pH 4.0 (Example 6); format: biochemical; conditions: pH 4.0, 500 mM H2O2, 1 mg protease
Method: as §1

[10] = Enzymatic perhydrolysis of propyl acetate at pH 6.5 (Example 11, comparative); format: biochemical; conditions: pH 6.5, 2 mg enzyme
Method: Into a 4-mL glass vial with stir bar was added 2 mg of one of the following enzymes: acetylcholinesterase (Sigma, C-2888), Lipase G “Amano” 50 (Amano), or Chirazyme L2, lyo. (C. antartica lipase B, BioCatalytics) dissolved in 0.050 mL of 50 mM potassium phosphate buffer (pH 6.5). To the vial was then added either a) 0.930 mL of a solution containing 50 mM potassium phosphate buffer (pH 6.5) and 215 mM propyl acetate, followed by 0.021 mL 30% hydrogen peroxide (200 mM final hydrogen peroxide concentration) or b) 0.900 mL of a solution containing 278 mM triacetin in 50 mM potassium phosphate buffer (pH 6.5), 0.024 mL of 50 mM potassium phosphate buffer (pH 6.5), and 0.026 mL 30% hydrogen peroxide (250 mM final concentration). […] A portion of the resulting filtrate was diluted 1:10 with dd water and analyzed for hydrogen peroxide, and the remaining portion of the filtrate was directly analyzed for peracid using the HPLC assay method (Table 12).

protease subtilisin from Bacillus amyloliquefaciens, sequence (P00782 108-382): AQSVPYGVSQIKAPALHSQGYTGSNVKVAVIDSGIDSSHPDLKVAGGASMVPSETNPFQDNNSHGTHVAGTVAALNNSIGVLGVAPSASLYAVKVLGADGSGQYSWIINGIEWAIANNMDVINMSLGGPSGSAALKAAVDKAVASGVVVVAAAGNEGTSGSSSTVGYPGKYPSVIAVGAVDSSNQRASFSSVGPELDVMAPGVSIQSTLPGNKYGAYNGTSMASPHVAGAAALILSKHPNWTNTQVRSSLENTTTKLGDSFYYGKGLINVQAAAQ

## OO [Hydrogen Peroxide, hydrogen peroxide]
[1]; 0.1 M hydrogen peroxide, in less than 6 minutes
  inactivation of the protease subtilisin: > 80%
[1]; 1.0 M hydrogen peroxide, in less than 4 minutes
  inactivation of the protease subtilisin: > 80%
E. coli ATCC 11229; Escherichia coli, ATCC11229, 10 min, E. coli ATCC 11229, 1.35×10^6 CFU/mL, 10 minutes at room temperature, XTT, six-log kill, read-out: Minimum Biocidal Concentration (MBC)
  MBC: > 170 µg/mL
E. coli ATCC 11229; H2O2 42.5 ppm
  blank-corrected mean OD: 1.710
  mean replicate OD (450 nm): 2.134
  replicate OD (450 nm): 2.007 and 2.027 and 1.971 and 2.117 and 2.666 and 2.170 and 2.082 and 2.034
E. coli ATCC 11229; H2O2 85.1 ppm
  blank-corrected mean OD: 1.466
  mean replicate OD (450 nm): 1.890
  replicate OD (450 nm): 1.889 and 1.815 and 1.795 and 1.962 and 2.153 and 1.880 and 1.793 and 1.834
E. coli ATCC 11229; H2O2 170.1 ppm
  blank-corrected mean OD: 0.005
  mean replicate OD (450 nm): 0.4295
  replicate OD (450 nm): 0.435 and 0.402 and 0.424 and 0.462 and 0.414 and 0.401 and 0.422 and 0.470
E. coli ATCC 11229; H2O2 340.2 ppm
  blank-corrected mean OD: 0.009
  mean replicate OD (450 nm): 0.433
  replicate OD (450 nm): 0.423 and 0.439 and 0.425 and 0.432 and 0.452 and 0.440 and 0.428 and 0.424
E. coli ATCC 11229; H2O2 680.5 ppm
  blank-corrected mean OD: 0.016
  mean replicate OD (450 nm): 0.440
  replicate OD (450 nm): 0.433 and 0.440 and 0.426 and 0.430 and 0.453 and 0.456 and 0.436 and 0.446

## Neutrase ®: Novozymes; a neutral protease from Bacillus amyloliquefaciens
[2]; pH 4.0, 5 min
  peracetic acid (ppm), 5 min: 50 ppm
[2]; pH 4.0, 30 min
  peracetic acid (ppm), 30 min: 110 ppm
[2]; pH 6.5, 5 min
  peracetic acid (ppm), 5 min: 50 ppm
[2]; pH 6.5, 30 min
  peracetic acid (ppm), 30 min: 110 ppm
[3]; pH 4.0
  peracetic acid (ppm), 5 min: 0 ppm
  peracetic acid (ppm), 30 min: 0 ppm
[3]; pH 6.5
  peracetic acid (ppm), 5 min: 110 ppm
  peracetic acid (ppm), 30 min: 300 ppm

## Pepsin
[4]; 5 min
  acetamide (250 mM) peracetic acid (ppm), 5 min: 45 ppm
[4]; 30 min
  acetamide (250 mM) peracetic acid (ppm), 30 min: 65 ppm
[5]; 5 min
  triacetin (250 mM) peracetic acid (ppm), 5 min: 111 ppm
[5]; 30 min
  triacetin (250 mM) peracetic acid (ppm), 30 min: 163 ppm
[6]; 5 min
  acetamide (250 mM) peracetic acid (ppm), 5 min: 81 ppm
[6]; 30 min
  acetamide (250 mM) peracetic acid (ppm), 30 min: 67 ppm
[7]; 5 min
  triacetin (250 mM) peracetic acid (ppm), 5 min: 65 ppm
[7]; 30 min
  triacetin (250 mM) peracetic acid (ppm), 30 min: 44 ppm
[8]; 5 min
  diacetamide (250 mM) peracetic acid (ppm), 5 min: 259 ppm
[8]; 30 min
  diacetamide (250 mM) peracetic acid (ppm), 30 min: 198 ppm
[9]; 5 min
  diacetamide (250 mM) peracetic acid (ppm), 5 min: 97 ppm
[9]; 30 min
  diacetamide (250 mM) peracetic acid (ppm), 30 min: 120 ppm

## acetyl cholinesterase
[10]; 5 min
  propyl acetate (200 mM), H2O2 (200 mM) peracetic acid (ppm), 5 min: 0 ppm
[10]; 30 min
  propyl acetate (200 mM), H2O2 (200 mM) peracetic acid (ppm), 30 min: 0 ppm
